Assay results: article PMC4666649, “The Influence of the 1-(3-Trifluoromethyl-Benzyl)-1H-Pyrazole-4-yl Moiety on the Adenosine Receptors Affinity Profile of Pyrazolo[4,3-e][1,2,4]Triazolo[1,5-c]Pyrimidine Derivatives” (PLoS ONE, 2015)
Where a name gives a salt, the structure may show the parent alone. Read-outs that look alike come from different tables or passages of the source.

Legend:
hA3 AR [1] = target: T1, hA3 AR (Homo sapiens, UniProt P0DMS8); experiment: Radioligand binding at human A3 ARs, displacement of [3H]HEMADO, membranes of transfected CHO cells; conditions: for Ki, hA1/hA3 (selectivity) / Ki, hA2a/hA3 (selectivity) / Ki, hA2b/hA3 (selectivity): ratio of Ki values, for reference compounds from literature affinities (Borea et al. unless otherwise indicated)
T1 construct: expressed in transfected cells; host or cells: CHO cells, stably transfected
T1 sequence (P0DMS8 1-318): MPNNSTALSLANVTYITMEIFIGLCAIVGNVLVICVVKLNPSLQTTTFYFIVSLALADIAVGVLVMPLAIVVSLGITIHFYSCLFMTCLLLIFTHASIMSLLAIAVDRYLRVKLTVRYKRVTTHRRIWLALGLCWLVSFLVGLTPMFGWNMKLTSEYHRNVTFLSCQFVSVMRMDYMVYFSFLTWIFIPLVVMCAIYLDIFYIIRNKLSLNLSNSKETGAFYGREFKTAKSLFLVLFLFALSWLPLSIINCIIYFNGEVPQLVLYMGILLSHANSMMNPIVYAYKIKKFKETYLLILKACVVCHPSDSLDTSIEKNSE

hA3 AR [2] = target: T1, hA3 AR; conditions: cited from earlier work; for Ki: reference xanthines
hA2A AR [3] = target: T2, hA2A AR (Homo sapiens, UniProt P29274); experiment: Radioligand binding at human A2A ARs, displacement of [3H]NECA, membranes of transfected CHO cells
T2 construct: expressed in transfected cells; host or cells: CHO cells, stably transfected

hA2B AR = target: T3, hA2B AR (Homo sapiens, UniProt P29275); experiment: Inhibition of NECA-stimulated adenylyl cyclase activity in CHO cells expressing hA2B ARs; type: biochemical
T3 construct: expressed in transfected cells; host or cells: CHO cells, stably transfected
T3 sequence (P29275 1-332): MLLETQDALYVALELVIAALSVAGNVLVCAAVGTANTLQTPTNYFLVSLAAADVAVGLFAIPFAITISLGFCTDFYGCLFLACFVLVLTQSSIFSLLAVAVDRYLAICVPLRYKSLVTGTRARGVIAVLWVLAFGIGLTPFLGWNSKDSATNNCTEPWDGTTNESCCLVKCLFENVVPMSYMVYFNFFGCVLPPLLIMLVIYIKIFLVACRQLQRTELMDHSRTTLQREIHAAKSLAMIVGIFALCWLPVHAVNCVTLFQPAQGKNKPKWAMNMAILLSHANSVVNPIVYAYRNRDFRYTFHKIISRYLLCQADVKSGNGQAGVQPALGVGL

hA1 AR = target: T4, hA1 AR (Homo sapiens, UniProt P30542); experiment: Radioligand binding at human A1 ARs, displacement of [3H]CCPA, membranes of transfected CHO cells
T4 sequence (P30542 1-326): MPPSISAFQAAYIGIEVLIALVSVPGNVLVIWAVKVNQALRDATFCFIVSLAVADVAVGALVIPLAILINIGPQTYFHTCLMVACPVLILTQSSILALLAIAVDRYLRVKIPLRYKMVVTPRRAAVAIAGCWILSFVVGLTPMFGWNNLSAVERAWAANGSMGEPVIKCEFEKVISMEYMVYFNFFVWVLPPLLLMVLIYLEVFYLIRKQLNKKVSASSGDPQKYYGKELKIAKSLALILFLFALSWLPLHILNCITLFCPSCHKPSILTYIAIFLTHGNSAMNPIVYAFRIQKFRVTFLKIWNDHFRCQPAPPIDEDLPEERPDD

hA2A AR [4] = target: T2, hA2A AR; conditions: reference xanthines; cited from earlier work
[5] = displacement of specific [3H]-HEMADO binding, CHO cells, geometric means with 95% confidence limits, read-out: hA3 AR (Ki nM)
[6] = displacement of specific [3H]-NECA binding, CHO cells, geometric means with 95% confidence limits, read-out: hA2A AR (Ki nM)
[7] = displacement of specific [3H]-CCPA binding, CHO cells, n = 3–6, geometric means with 95% confidence limits, read-out: hA1 AR (Ki nM)
[8] = competition for [3H]HEMADO, total binding, single experiment (S1 Fig), read-out: Ki, hA3 AR, representative single experiment

T2 sequence (P29274 whole entry): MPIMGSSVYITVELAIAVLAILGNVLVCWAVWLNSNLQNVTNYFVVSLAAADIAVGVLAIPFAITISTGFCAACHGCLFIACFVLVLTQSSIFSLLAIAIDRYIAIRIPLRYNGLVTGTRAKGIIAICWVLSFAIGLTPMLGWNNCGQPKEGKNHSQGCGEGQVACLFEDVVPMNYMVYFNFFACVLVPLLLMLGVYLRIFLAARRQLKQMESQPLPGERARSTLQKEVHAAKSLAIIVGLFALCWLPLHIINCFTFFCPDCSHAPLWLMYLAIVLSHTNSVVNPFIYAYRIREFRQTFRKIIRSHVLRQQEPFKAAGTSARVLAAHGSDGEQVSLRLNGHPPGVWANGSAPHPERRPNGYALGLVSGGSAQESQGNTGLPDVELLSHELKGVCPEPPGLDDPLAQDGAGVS

Ki, hA1/hA3 (selectivity) (hA3 AR [1]) | Ki, hA2a/hA3 (selectivity) (hA3 AR [1]) | melting point | Ki (hA3 AR [1]; [5]) | Ki (hA2A AR [3]; [6]) | Ki (hA2B AR) | Ki (hA1 AR; [7]) | SMILES | Ki, hA2b/hA3 (selectivity) (hA3 AR [1]) | other results
– | – | – | – | – | – | – | CCCCC#Cc1nc(NC)c2ncn([C@@H]3O[C@H](CO)[C@@H](O)[C@H]3O)c2n1 [[^3H]HEMADO, [^3H]2-(1-Hexynyl)-N-methyladenosine] | – | Kd (hA3 AR [2]; radioligand used at 1 nM, read-out: KD of radioligand at A3 AR): 1.1 nM
1 | 1 | – | – | – | – | – | Cn1c(=O)c2[nH]c(-c3cnn(Cc4cccc(C(F)(F)F)c4)c3)nc2n(C)c1=O [compound 1, 8-(1-(3-(trifluoromethyl)benzyl)-1H-pyrazol-4-yl)-1,3-dimethyl-1H-purine-2,6(3H,7H)-dione, reference compound] | – | –
– | 4 | 125 °C | 2360 nM | 8280 nM | > 10000 nM | 703 nM | Cn1cc2c(nc(N)n3nc(-c4cnn(Cc5cccc(C(F)(F)F)c5)c4)nc23)n1 [compound 3, 8-methyl-2-[1-(3-trifluoromethyl-benzyl)-1H-pyrazol-4-yl]-8H-pyrazolo[4,3-e][1,2,4]triazolo[1,5-c]pyrimidin-5-ylamine] | 4 | hA3 AR (Ki nM) (hA3 AR [1]; displacement of specific [3H]-HEMADO binding, CHO cells, geometric means with 95% confidence limits): almost inactive; Ki (hA2A AR [3]; competition with [3H]NECA, total binding, single experiment (S3 Fig), read-out: Ki, hA2A AR, representative single experiment): 6820 nM; hA2A AR (Ki nM) (hA2A AR [3]; displacement of specific [3H]-NECA binding, CHO cells, geometric means with 95% confidence limits): almost inactive; hA2B AR (Ki nM) (hA2B AR): almost inactive; Ki (hA1 AR; competition with [3H]CCPA, total binding, single experiment (S2 Fig), read-out: Ki, hA1 AR, representative single experiment): 764 nM; hA1 AR (Ki nM) (hA1 AR; displacement of specific [3H]-CCPA binding, CHO cells, n = 3–6, geometric means with 95% confidence limits): almost inactive
– | – | – | 46.7 nM | 2460 nM | > 10000 nM | 3890 nM | Cn1cc2c(nc(NC(=O)Nc3ccccc3)n3nc(-c4cnn(Cc5cccc(C(F)(F)F)c5)c4)nc23)n1 [compound 4, 1-{8-Methyl-2-[1-(3-trifluoromethyl-benzyl)-1H-pyrazol-4-yl]-8H-pyrazolo[4,3-e][1,2,4]triazolo [1,5-c]pyrimidin-5-yl}-3-phenylurea] | – | Ki (hA3 AR [1]; [8]): 39 nM
– | – | – | 138 nM | > 100000 nM | > 10000 nM | 25500 nM | Cn1cc2c(nc(NC(=O)c3ccccc3)n3nc(-c4cnn(Cc5cccc(C(F)(F)F)c5)c4)nc23)n1 [compound 5, N-{8-Methyl-2-[1-(3-trifluoromethyl-benzyl)-1H-pyrazol-4-yl]-8H-pyrazolo[4,3-e][1,2,4]triazolo[1,5-c]pyrimidin-5-yl}-benzamide] | – | –
– | – | 178 °C | 53 nM | 20500 nM | > 10000 nM | 4390 nM | COc1ccc(CC(=O)Nc2nc3nn(C)cc3c3nc(-c4cnn(Cc5cccc(C(F)(F)F)c5)c4)nn23)cc1 [compound 7] | – | –
3 | 4 | – | – | – | – | – | CCCn1c(=O)c2[nH]c(-c3cnn(Cc4cccc(C(F)(F)F)c4)c3)nc2n(CCC)c1=O [compound 33, reference compound] | – | Ki (hA2A AR [4]): 230 nM; Ki (hA3 AR [2]): 56 nM
1 | 3 | – | – | – | – | – | CCCn1c(=O)c2[nH]c(-c3cnn(Cc4cccc(F)c4)c3)nc2n(CCC)c1=O [compound 36, reference compound] | – | Ki (hA2A AR [4]): 400 nM; Ki (hA3 AR [2]): 150 nM

SMILES | Ki, hA1/hA3 (selectivity) (hA3 AR [1]) | Ki, hA2a/hA3 (selectivity) (hA3 AR [1]) | melting point | Ki (hA3 AR [1]; [5]) | Ki (hA2A AR [3]; [6]) | Ki (hA2B AR) | Ki (hA1 AR; [7]) | Ki, hA2b/hA3 (selectivity) (hA3 AR [1]) | other results
Cn1cc2c(nc(NC(=O)Nc3ccncc3)n3nc(-c4ccco4)nc23)n1 [MRE3005F20 (HCl), reference compound] | 35000 | 10000 | – | – | – | – | – | 25000 | –
Cn1cc2c(nc(NC(=O)Cc3ccccc3)n3nc(-c4cnn(Cc5cccc(C(F)(F)F)c5)c4)nc23)n1 [compound 6, N-{8-Methyl-2-[1-(3-trifluoromethyl-benzyl)-1H-pyrazol-4-yl]-8H-pyrazolo[4,3-e][1,2,4]triazolo[1,5-c]pyrimidin-5-yl}-phenyl-acetamide] | – | > 9091 | 190 °C | 11 nM | > 100000 nM | > 10000 nM | > 100000 nM | > 909 | Ki (hA3 AR [1]; [8]): 17 nM
